Data from patent US12152264B2, “Phosphinothricin dehydrogenase mutant, genetically engineered bacterium and one-pot multi-enzyme synchronous directed evolution method” (ZHEJIANG UNIVERSITY OF TECHNOLOGY, priority 2020, dated 2024).

What was measured:
[1] = biological target: Pseudomonas fluorescens phosphinothricin dehydrogenase (PPTDH, PfGluDH; NCBI accession number WP_150701510.1), wild type (Pseudomonas azerbaijanoccidentalis, UniProt A0ABS6QXK2); assay: Determination of kinetic parameters of wild-type phosphinothricin dehydrogenase (PPO reductive amination with NADPH); details: pH 7.0, 40° C.
[2] = biological target: Pseudomonas fluorescens phosphinothricin dehydrogenase (PPTDH, PfGluDH; WP_150701510.1) mutant A164G_R205K_T332A, SEQ ID No.1 (Pseudomonas azerbaijanoccidentalis, UniProt A0ABS6QXK2, A164G/R205K/T332A); format: biochemical; details: A164G_R205K_T332A; pH 7.0, 40° C.

NC(=O)C1=CN([C@@H]2O[C@H](COP(=O)(O)OP(=O)(O)OC[C@H]3O[C@@H](n4cnc5c(N)ncnc54)[C@H](OP(=O)(O)O)[C@@H]3O)[C@@H](O)[C@H]2O)C=CC1 [NADPH]
kcat/Km^A (NADPH) [1]: 53.36 s⁻¹ mM⁻¹
kcat/Km^A (NADPH) [2]: 10576.11 s⁻¹ mM⁻¹
